In US11485736B2 (KSQ Therapeutics, Inc., priority 2018, dated 2022):
Where two headings read alike, the source gives them in different places.

Legend:
USP1/UAF1 = USP1/UAF1 (Homo sapiens (Human), UniProt O94782); experiment: Deubiquitination assay for USP1/UAF1 activity (ubiquitin-rhodamine 110); assay type: biochemical; conditions: 0.05 nM USP1/UAF1, 150 nM ubiquitin-rhodamine
Description: Certain Compounds of the Disclosure were assessed for USP1/UAF1 activity in a Ubiquitin Rhodamine assay modified from those described previously.
Deubiquitinase activity was measured using ubiquitin-rhodamine 110 as a substrate. Cleavage of the amide bond between rhodamine and the c-terminal glycine of ubiquitin yields an increase in fluorescence signal. The assay was conducted in 20 ul total volume of assay buffer (50 mM Tris-HCl, pH 7.8, 0.5 mM EDTA, 0.01% Bovine Serum Albumin, 1 mM DTT, 0.01% Tween-20), and 0.05 nM USP1/UAF1 enzyme.
Compounds, dissolved in DMSO were tested in dose response format, beginning at 10 uM.
Compounds depicted below were added to enzyme/assay buffer mix and incubated 10 min.
Data for all assay formats was calculated as percent inhibition compared with control wells. […] IC50 values were calculated using the standard four parameter curve fitting algorithm in either Prism GraphPad (La Jolla, Calif.) software, or Collaborative Drug Discovery (Burlingame, Calif.) CDD Vault.

[1] = Liver microsomal stability, rat liver microsomes; assay type: in vitro ADME; conditions: 1 μM compound, NADPH, read-out: t1/2 (min) in RLM
Procedure, shortened: (§1)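 Compound (1 μM final) was incubated with prewarmed human or rat liver microsomes (1 mg/mL in 100 mM phosphate master mix) plus NADPH; aliquots at 0.5–30 minutes were quenched in cold acetonitrile and quantified by LC-MS/MS. Half-life came from the ln(% remaining) versus time slope, converted to CLint (μL/min/mg prot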

[2] = ADME solubility determination at pH 2.0 and pH 7.4; assay type: physicochemical; conditions: aqueous buffer, thermodynamic from solid, LC-MS/MS
Procedure, shortened: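 Dried residues of 10 mM DMSO stocks were shaken in PBS pH 7.4 or pH 2.0 for 24 hours at 25° C. and 1,100 rpm. After centrifugation, supernatants were quantified by LC-MS/MS against a standard of known concentration, applying a dilution factor.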

[3] = Liver microsomal stability, human liver microsomes; assay type: in vitro ADME; conditions: 1 μM compound, NADPH, read-out: t1/2 (min) in HLM
Procedure, shortened: as §1

[4] = PBS pH 2.0, shaken at 25° C. for 24 hours, read-out: Solubility at pH 2.0
[5] = PBS pH 7.4, shaken at 25° C. for 24 hours, read-out: Solubility at pH 7.4

USP1/UAF1, sequence (O94782 whole entry): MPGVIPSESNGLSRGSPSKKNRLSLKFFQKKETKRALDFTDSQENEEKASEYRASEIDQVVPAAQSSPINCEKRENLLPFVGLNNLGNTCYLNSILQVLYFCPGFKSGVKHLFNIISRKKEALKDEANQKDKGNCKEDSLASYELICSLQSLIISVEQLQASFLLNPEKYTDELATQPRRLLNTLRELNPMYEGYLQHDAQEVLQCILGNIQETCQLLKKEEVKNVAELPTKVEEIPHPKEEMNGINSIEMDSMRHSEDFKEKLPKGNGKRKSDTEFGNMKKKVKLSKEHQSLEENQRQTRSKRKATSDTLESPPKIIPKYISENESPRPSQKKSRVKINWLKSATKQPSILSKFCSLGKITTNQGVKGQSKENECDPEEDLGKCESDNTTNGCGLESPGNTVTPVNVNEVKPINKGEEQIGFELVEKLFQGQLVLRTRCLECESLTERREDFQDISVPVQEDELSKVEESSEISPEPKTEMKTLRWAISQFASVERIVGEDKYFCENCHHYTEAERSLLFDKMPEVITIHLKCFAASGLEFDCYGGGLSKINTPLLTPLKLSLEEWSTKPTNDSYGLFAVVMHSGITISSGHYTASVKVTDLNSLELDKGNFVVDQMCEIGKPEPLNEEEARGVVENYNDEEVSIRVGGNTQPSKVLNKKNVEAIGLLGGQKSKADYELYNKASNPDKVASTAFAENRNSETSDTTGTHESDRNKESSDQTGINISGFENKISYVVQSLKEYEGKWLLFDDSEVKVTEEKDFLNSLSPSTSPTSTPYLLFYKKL
USP1/UAF1, sequence (Q8TAF3 whole entry partner): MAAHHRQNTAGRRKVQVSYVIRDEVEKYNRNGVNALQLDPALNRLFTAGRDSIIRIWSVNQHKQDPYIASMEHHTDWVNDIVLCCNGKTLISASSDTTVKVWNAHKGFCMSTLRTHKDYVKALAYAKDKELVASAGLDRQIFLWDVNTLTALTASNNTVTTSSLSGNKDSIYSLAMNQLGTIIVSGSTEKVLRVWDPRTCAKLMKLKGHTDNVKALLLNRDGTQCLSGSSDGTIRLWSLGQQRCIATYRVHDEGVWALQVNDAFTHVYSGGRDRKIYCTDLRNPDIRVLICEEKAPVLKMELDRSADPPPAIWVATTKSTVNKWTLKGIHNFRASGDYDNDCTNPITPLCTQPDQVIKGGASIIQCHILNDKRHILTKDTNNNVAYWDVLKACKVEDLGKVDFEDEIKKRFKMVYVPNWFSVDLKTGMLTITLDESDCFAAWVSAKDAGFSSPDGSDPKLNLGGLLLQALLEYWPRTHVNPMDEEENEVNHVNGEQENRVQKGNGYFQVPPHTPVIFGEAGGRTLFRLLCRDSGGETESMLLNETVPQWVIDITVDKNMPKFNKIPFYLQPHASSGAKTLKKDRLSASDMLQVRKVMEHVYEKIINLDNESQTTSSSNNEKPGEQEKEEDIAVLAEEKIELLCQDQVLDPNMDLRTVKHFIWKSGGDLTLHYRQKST

SMILES | IC50 (USP1/UAF1; Table 3) [µM] | half-life at 1 μM [1] [min] | solubility at 24 h [2, 4] [µM] | solubility at 24 h [2, 5] [µM] | half-life at 1 μM [3] [min] | other results
CSc1ncnc(C)c1-c1ncc2cnn(Cc3ccc(-n4nc(C(F)(F)F)cc4C)cc3)c2n1 [drawing 779] | 0.01 to 0.1 | – | – | – | – | –
COc1ncnc(C2CC2)c1-c1ncc2cnn(Cc3ccc(-c4nc(OC)n(C)n4)cc3)c2n1 | > 0.2 | – | – | – | – | –
[2H]C([2H])([2H])Oc1ncnc(C2CC2)c1-c1ncc2cnn(Cc3ccc(-c4nc(C(F)(F)F)cn4CC)cc3)c2n1 [drawing 744] | 0.01 to 0.1 | – | – | – | – | –
COCCOc1ncnc(C2CC2)c1-c1ncc2cnn(Cc3ccc(-c4nc(C(F)(F)F)cn4C)cc3)c2n1 [drawing 787] | > 0.2 | – | – | – | – | –
COc1ncnc(C2CC2)c1-c1ncc2cnn(Cc3ccc(-c4nc(C(F)F)nn4C)cc3)c2n1 | > 0.2 | – | – | – | – | –
CC(C)c1ncccc1-c1ncc2cnn(Cc3ccc(-c4nc(C(F)(F)F)cn4C)cc3)c2n1 [drawing 721] | – | – | – | – | – | IC50 (USP1/UAF1; Table 2): 0.01 to 0.1 µM
CCn1cc(C(F)(F)F)nc1-c1ccc([C@H](C)n2ncc3cnc(-c4c(OC)ncnc4C4CC4)nc32)cc1 (single isomer, unassigned) [drawing 751] | 0.01 to 0.1 | – | – | – | – | –
CC(C)Oc1ncnc(C2CC2)c1-c1ncc2cnn(Cc3ccc(-c4nc(C(F)(F)F)cn4C)cc3)c2n1 [drawing 756] | 0.01 to 0.1 | – | – | – | – | –
COc1ncnc(C2CC2)c1-c1ncc2ccn(Cc3ccc(-c4nc(C(F)(F)F)cn4C)cc3)c2n1 [drawing 826] | – | – | – | – | – | IC50 (USP1/UAF1; Table 4): 0.01 to 0.1 µM
COc1ncnc(C)c1-c1ncc2ncn(Cc3ccc(-n4nc(C(F)(F)F)cc4C)cc3)c2n1 | – | – | – | – | – | IC50 (USP1/UAF1; Table 4): > 0.2 µM
[2H]C([2H])([2H])n1cc(C(F)(F)F)nc1-c1ccc(Cn2ncc3cnc(-c4c(OC)ncnc4C4CC4)nc32)cc1 | 0.01 to 0.1 | – | – | – | – | –
Cc1cc(C(F)(F)F)nn1-c1ccc(Cn2ncc3cnc(-c4cccnc4C#N)nc32)cc1 [drawing 797] | > 0.2 | – | – | – | – | –
COc1ncnc(C2CC2)c1-c1ncc2c(OC)nn([C@@H](C)c3ccc(-c4nc(C(F)(F)F)c(Br)n4C)cc3)c2n1 [drawing 802] | – | – | – | – | – | IC50 (USP1/UAF1; Table 4): 0.01 to 0.1 µM
CCn1cc(C(F)(F)F)nc1-c1ccc(Cn2ncc3cnc(-c4c(C5CC5)cnn4CC)nc32)cc1 [drawing 771] | 0.01 to 0.1 | – | – | – | – | –
Cc1ncnc(N(C)C)c1-c1ncc2cnn(Cc3ccc(-n4nc(C(F)(F)F)cc4C)cc3)c2n1 | > 0.2 | – | – | – | – | –
CCn1cc(C(F)(F)F)nc1-c1ccc(Cn2ncc3cnc(-c4c(OC)ncnc4OC)nc32)cc1 [drawing 755] | 0.01 to 0.1 | – | – | – | – | –
CCn1cc(C(F)(F)F)nc1-c1ccc(Cn2nc(SCc3ccc(OC)cc3)c3cnc(-c4c(OC)ncnc4C4CC4)nc32)cc1 [drawing 801] | – | – | – | – | – | IC50 (USP1/UAF1; Table 4): 0.01 to 0.1 µM
CCc1nc2cnc(-c3c(OC)ncnc3C3CC3)nc2n1Cc1ccc(-c2nc(C(F)(F)F)cn2C(C)C)cc1 [drawing 808] | – | – | – | – | – | IC50 (USP1/UAF1; Table 4): 0.01 to 0.1 µM
Cn1cc(C(F)(F)F)nc1-c1ccc(Cn2ncc3cnc(-c4c(C5CC5)ncnc4N4CCC4)nc32)cc1 | > 0.2 | – | – | – | – | –
COc1ncnc(C2CC2)c1-c1ncc2ncn(Cc3ccc(-c4nc(C(F)(F)F)cn4C(C)C)cc3)c2n1 [drawing 818] | – | – | – | – | – | IC50 (USP1/UAF1; Table 4): 0.01 to 0.1 µM
CCn1cc(C(F)(F)F)nc1-c1ccc(Cn2nc(SC)c3cnc(-c4c(OC)ncnc4C4CC4)nc32)cc1 [drawing 800] | – | – | – | – | – | IC50 (USP1/UAF1; Table 4): 0.01 to 0.1 µM

SMILES | IC50 (USP1/UAF1; Table 3) [µM] | half-life at 1 μM [1] [min] | solubility at 24 h [2, 4] [µM] | solubility at 24 h [2, 5] [µM] | half-life at 1 μM [3] [min] | other results
COc1ncnc(C2CC2)c1-c1ncc2cnn(Cc3ccc(-n4nc(C(F)(F)F)cc4OC)nc3)c2n1 [drawing 768] | 0.01 to 0.1 | – | – | – | – | –
COc1ncnc(OC)c1-c1ncc2cnn(Cc3ccc(-c4nc(C(F)(F)F)cn4C(C)C)cc3)c2n1 [Example 90] | – | > 25 | > 10 | > 10 | > 25 | –
Cc1cnn(C(C)C)c1-c1ncc2cnn(Cc3ccc(-n4nc(C(F)(F)F)cc4C)cc3)c2n1 [Example 44] | – | < 25 | < 10 | < 10 | < 25 | –
CCn1cc(C(F)(F)F)nc1-c1ccc(Cn2ncc3cnc(-c4c(OC)ncnc4C4CC4)nc32)cc1 [Example 51] | – | > 25 | > 10 | < 10 | > 25 | –
COc1cn(C(C)C)c(-c2ccc(Cn3ncc4cnc(-c5c(OC)ncnc5C5CC5)nc43)cc2)n1 [Example 74] | – | < 25 | > 10 | > 10 | < 25 | –
CCn1cc(C(F)(F)F)nc1-c1ccc([C@@H](C)n2ncc3cnc(-c4c(OC)ncnc4C4CC4)nc32)cc1 (single isomer, unassigned) [Example 95] | – | < 25 | > 10 | < 10 | > 25 | –
COc1ncnc(C2CC2)c1-c1nc(OC)c2cnn(Cc3ccc(-n4nc(C(F)(F)F)cc4C)cc3)c2n1 [Example 28] | – | > 25 | < 10 | < 10 | > 25 | –
COc1ncnc(C2CC2)c1-c1ncc2ncn(Cc3ccc(-c4nc(C(F)(F)F)cn4C(C)C)cc3)c2n1 [Example 204] | – | < 25 | > 10 | > 10 | > 25 | –
COc1ncnc(C2CC2)c1-c1ncc2c(OC)nn([C@@H](C)c3ccc(-c4nc(C(F)(F)F)cn4CCF)cc3)c2n1 [Example 178] | – | > 25 | < 10 | < 10 | > 25 | –
CCn1cc(C(F)(F)F)nc1-c1ccc([C@H](C)n2ncc3cnc(-c4c(OC)ncnc4C4CC4)nc32)cc1 (single isomer, unassigned) [Example 94] | – | < 25 | > 10 | < 10 | > 25 | –
COc1ncnc(C2CC2)c1-c1ncc2cnn([C@H](C)c3ccc(-c4nc(C(F)(F)F)cn4C)cc3)c2n1 (single isomer, unassigned) [Example 93] | – | < 25 | > 10 | > 10 | < 25 | –
CC(C)c1ccccc1-c1ncc2ncn(Cc3ccc(-c4nc(C(F)(F)F)cn4C)cc3)c2n1 [Example 202, 2-(2-Isopropylphenyl)-9-(4-(1-methyl-4-(trifluoromethyl)-1H-imidazol-2-yl)benzyl)-9H-purine] | – | < 25 | > 10 | < 10 | < 25 | –
COc1ncnc(C2CC2)c1-c1ncc2cnn(Cc3ccc(-c4nc(C(F)(F)F)c5n4CCNC5)cc3)c2n1 [Example 136, 6-(4-Cyclopropyl-6-methoxypyrimidin-5-yl)-1-(4-(1-(trifluoromethyl)-5,6,7,8-tetrahydroimidazo[1,5-a]pyrazin-3-yl)benzyl)-1H-pyrazolo[3,4-d]pyrimidine] | – | < 25 | > 10 | < 10 | < 25 | –
COCCOc1ncnc(C2CC2)c1-c1ncc2cnn(Cc3ccc(-n4nc(C(F)(F)F)cc4C)cc3)c2n1 [Example 43] | – | < 25 | < 10 | > 10 | < 25 | –
COc1ncnc(C2CC2)c1-c1ncc2cnn(Cc3ccc(-c4nc5c(F)cccc5n4C)cc3)c2n1 [Example 131] | – | > 25 | > 10 | < 10 | > 25 | –
COc1ncnc(C2CC2(C)C)c1-c1ncc2cnn(Cc3ccc(-c4nc(C(F)(F)F)cn4C(C)C)cc3)c2n1 (stereo not drawn) [Example 108] | – | < 25 | > 10 | < 10 | < 25 | –
COc1ncnc(C2CC2)c1-c1ncc2cnn(Cc3ccc(-c4nc(C(F)(F)F)cn4C)c(F)c3)c2n1 [Example 17] | – | > 25 | < 10 | < 10 | > 25 | –
COCCOc1cc(C(F)(F)F)nn1-c1ccc(Cn2ncc3cnc(-c4c(OC)ncnc4C4CC4)nc32)cc1 [Example 77] | – | < 25 | < 10 | < 10 | < 25 | –
COc1ncnc(C(C)C)c1-c1ncc2cnn(Cc3ccc(-n4nc(C(F)(F)F)cc4C)cc3)c2n1 [Example 115] | – | < 25 | < 10 | < 10 | < 25 | –
Cc1cc(C(F)(F)F)nn1-c1ccc(Cn2ncc3cnc(-c4cccnc4C#N)nc32)cc1 [Example 49] | – | > 25 | < 10 | < 10 | > 25 | –
COc1ncnc(C2CC2)c1-c1ncc2cnn(Cc3ccc(-c4nc(C(F)(F)F)c[nH]4)cc3)c2n1 [Example 134, 6-(4-cyclopropyl-6-methoxypyrimidin-5-yl)-1-(4-(4-(trifluoromethyl)-1H-imidazol-2-yl)benzyl)-1H-pyrazolo[3,4-d]pyrimidine] | – | > 25 | < 10 | < 10 | > 25 | –
